Measured values: patent publication US10722520B2, “Heterocyclic compounds and their use in preventing or treating bacterial infections” (MUTABILIS, priority 2016, dated 2020)

Assays:
SHV-1 = SHV-1 (Klebsiella pneumoniae, UniProt P0AD64); settings: read-out: IC50 β-lactamase SHV-1; class (A); nitrocefin 200 μM, 30-min pre-incubation, enzyme 0.075 nM
AmpC (P99) = AmpC (P99) (Enterobacter cloacae, UniProt P05364); settings: read-out: IC50 β-lactamase AmpC (P99); class (C); nitrocefin 200 μM, 30-min pre-incubation, enzyme 0.2 nM
KPC-2 = KPC-2 (Klebsiella pneumoniae, UniProt Q9F663); settings: read-out: IC50 β-lactamase KPC-2; class (A); nitrocefin 200 μM, 30-min pre-incubation, enzyme 1 nM
TEM-1 = TEM-1 (Escherichia coli, UniProt P62593); settings: read-out: IC50 β-lactamase TEM-1; class (A); nitrocefin 200 μM, 30-min pre-incubation, enzyme 0.1 nM
OXA-48 = OXA-48 (Klebsiella pneumoniae, UniProt Q6XEC0); settings: read-out: IC50 β-lactamase OXA-48; class (D); nitrocefin 200 μM, 30-min pre-incubation, enzyme 0.3 nM
OXA-15 = OXA-15 (Pseudomonas aeruginosa, UniProt Q51574); settings: read-out: IC50 β-lactamase OXA-15; class (D); nitrocefin 200 μM, 30-min pre-incubation, enzyme 0.4 nM
K. pneumoniae 6299 [1] = experiment: MIC of compound alone, broth microdilution; assay type: cell-based; settings: strain 6299; compound alone
Outline: (§1)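 Visual end point: lowest concentration that blocked growth. Conditions: cation-adjusted Mueller-Hinton broth, 5×10^5 cfu/mL final inoculum of log-phase bacteria, 16-20 h, 35° C, ambient atmosphere.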

P. aeruginosa CIP107051 [2] = experiment: MIC of compound alone, broth microdilution; assay type: cell-based; settings: strain CIP107051; compound alone
Outline: as §1

K. pneumoniae BAA-1898 [3] = experiment: MIC of compound alone, broth microdilution; assay type: cell-based; settings: strain BAA-1898; compound alone
Outline: as §1

E. cloacae P99 [4] = experiment: MIC of compound alone, broth microdilution; assay type: cell-based; settings: strain P99; compound alone
Outline: as §1

E. coli 190317 [5] = experiment: MIC of compound alone, broth microdilution; assay type: cell-based; settings: strain 190317; compound alone
Outline: as §1

AmpC (PAE) = AmpC (PAE) (Pseudomonas aeruginosa, UniProt P24735); settings: read-out: IC50 β-lactamase AmpC (PAE); class (C); nitrocefin 200 μM, 30-min pre-incubation, enzyme 0.4 nM
OXA-11 = OXA-11 (Pseudomonas aeruginosa, UniProt Q06778); settings: read-out: IC50 β-lactamase OXA-11; class (D); nitrocefin 200 μM, 30-min pre-incubation, enzyme 1.2 nM
OXA-1 = OXA-1 (Escherichia coli, UniProt P13661); settings: read-out: IC50 β-lactamase OXA-1; class (D); nitrocefin 200 μM, 30-min pre-incubation, enzyme 0.2 nM
CTX-M-15 = CTX-M-15 (Escherichia coli, UniProt Q9EXV5); settings: read-out: IC50 β-lactamase CTX-M-15; class (A); nitrocefin 200 μM, 30-min pre-incubation, enzyme 0.4 nM
CMY-37 = CMY-37 (Citrobacter freundii, UniProt P05193); settings: read-out: IC50 β-lactamase CMY-37; class (C); nitrocefin 200 μM, 30-min pre-incubation, enzyme 0.2 nM
K. pneumoniae 6299 [6] = experiment: MIC of ceftazidime (CAZ) at fixed concentration of compound (synergy), broth microdilution; assay type: cell-based; settings: strain 6299; MIC of CAZ, compound fixed at 4 μg/mL
Method: (§2) Log phase bacterial suspensions were adjusted to a final density of 5×10^5 cfu/mL in cation-adjusted Mueller-Hinton broth (Becton-Dickinson) and added to each well (98 μL). Microplates were incubated for 16-20 h at 35° C. in ambient air. The MIC of the compounds was defined as the lowest concentration of said compounds that prevented bacterial growth as read by visual inspection.

P. aeruginosa CIP107051 [7] = experiment: as above; assay type: cell-based; settings: strain CIP107051; MIC of CAZ, compound fixed at 4 μg/mL
Method: as §2

K. pneumoniae BAA-1898 [8] = experiment: as above; assay type: cell-based; settings: strain BAA-1898; MIC of CAZ, compound fixed at 4 μg/mL
Method: as §2

E. cloacae P99 [9] = experiment: as above; assay type: cell-based; settings: strain P99; MIC of CAZ, compound fixed at 4 μg/mL
Method: as §2

E. coli 190317 [10] = experiment: as above; assay type: cell-based; settings: strain 190317; MIC of CAZ, compound fixed at 4 μg/mL
Method: as §2

SMILES | IC50 (SHV-1) [nM] | IC50 (AmpC (P99)) [nM] | IC50 (KPC-2) [nM] | IC50 (TEM-1) [nM] | IC50 (OXA-48) [nM] | IC50 (OXA-15) [nM] | MIC compounds of the invention alone (K. pneumoniae 6299 [1]) [µg/mL] | MIC compounds of the invention alone (P. aeruginosa CIP107051 [2]) [µg/mL] | MIC compounds of the invention alone (K. pneumoniae BAA-1898 [3]) [µg/mL] | MIC compounds of the invention alone (E. cloacae P99 [4]) [µg/mL] | MIC compounds of the invention alone (E. coli 190317 [5]) [µg/mL] | IC50 (AmpC (PAE)) [nM] | IC50 (OXA-11) [nM] | IC50 (OXA-1) [nM] | IC50 (CTX-M-15) [nM] | IC50 (CMY-37) [nM] | MIC combination of CAZ and compounds of the invention at 4 μg/mL (K. pneumoniae 6299 [6]) [µg/mL] | MIC combination of CAZ and compounds of the invention at 4 μg/mL (P. aeruginosa CIP107051 [7]) [µg/mL] | MIC combination of CAZ and compounds of the invention at 4 μg/mL (K. pneumoniae BAA-1898 [8]) [µg/mL] | MIC combination of CAZ and compounds of the invention at 4 μg/mL (E. cloacae P99 [9]) [µg/mL] | further results
NCc1cn(C2=CC3CN(C2)C(=O)N3OS(=O)(=O)[O-])nn1.O=C(O)C(F)(F)F.[Na+] (stereo not drawn) [Example 57, sodium and 2,2,2-trifluoroacetate [3-[4-(ammoniummethyl)triazol-1-yl]-7-oxo-1,6-diazabicyclo[3.2.1]oct-3-en-6-yl]sulfate] | 2.6 | 21 | 11 | 0.37 | 1.1 | 6.4 | >32 | 16 | 16 | 1 | 0.5 | 550 | 170 | 66 | 0.75 | 31 | ≤0.25 | 4 | ≤0.25 | <0.25 | MIC combination of CAZ and compounds of the invention at 4 μg/mL (E. coli 190317 [10]): <0.25 µg/mL
N#Cc1ccn(C2=CC3CN(C2)C(=O)N3OS(=O)(=O)[O-])n1.[Na+] (stereo not drawn) [Example 17, sodium [3-(3-carbonitrilepyrazol-1-yl)-7-oxo-1,6-diazabicyclo[3.2.1]oct-3-en-6-yl]sulfate] | 1 | 30 | 3.7 | 0.23 | 5.8 | 30 | >32 | >32 | 16 | 16 | 4 | 280 | 63 | 100 | 0.76 | 87 | 0.25 | 8 | 0.25 | 1 | MIC combination of CAZ and compounds of the invention at 4 μg/mL (E. coli 190317 [10]): <0.25 µg/mL
O=C([O-])CCc1cn(C2=CC3CN(C2)C(=O)N3OS(=O)(=O)[O-])nn1.[Na+].[Na+] (stereo not drawn) [Example 65, disodium [3-[4-(propanoate)triazol-1-yl]-7-oxo-1,6-diazabicyclo[3.2.1]oct-3-en-6-yl]sulfate] | 2.8 | 11 | 6 | 0.27 | 0.8 | 6.7 | 32 | >32 | 32 | 32 | 32 | 490 | 270 | 53 | 0.96 | 13 | 2 | 8 | 64 | 8 | MIC combination of CAZ and compounds of the invention at 4 μg/mL (E. coli 190317 [10]): 0.5 µg/mL
CC(=O)Nc1ccn(C2=CC3CN(C2)C(=O)N3OS(=O)(=O)O)n1.CCN(CC)CC (stereo not drawn) [Example 33, triethylammonium {[3-(N-acetamido)pyrazol-1-yl]-7-oxo-1,6-diazabicyclo[3.2.1]oct-3-en-6-yl}sulfate] | 1.7 | 7.1 | 11 | 0.67 | 3.1 | 44 | 32 | >32 | 32 | 16 | 8 | 32 | 8.4 | 68 | 0.72 | 3.2 | 0.25 | 8 | 16 | 1 | MIC combination of CAZ and compounds of the invention at 4 μg/mL (E. coli 190317 [10]): ≤0.25 µg/mL
NC(=O)c1cn(C2=CC3CN(C2)C(=O)N3OS(=O)(=O)[O-])nn1.[Na+] (stereo not drawn) [Example 56, sodium [3-(4-carbamoyltriazol-1-yl)-7-oxo-1,6-diazabicyclo[3.2.1]oct-3-en-6-yl]sulfate] | 1 | 12 | 2.4 | 0.17 | 0.48 | 9 | 32 | >32 | 32 | 8 | 4 | 290 | 37 | 30 | 0.44 | 38 | ≤0.25 | 8 | ≤0.25 | ≤0.25 | MIC combination of CAZ and compounds of the invention at 4 μg/mL (E. coli 190317 [10]): <0.25 µg/mL
O=C([O-])Cc1cn(C2=CC3CN(C2)C(=O)N3OS(=O)(=O)[O-])nn1.[Na+].[Na+] (stereo not drawn) [Example 61] | 6.1 | 20 | 17 | 1.7 | 0.91 | 19 | 32 | >32 | >32 | 32 | 32 | 1100 | 360 | 110 | 1.8 | 41 | 4 | 4 | 64 | 8 | MIC combination of CAZ and compounds of the invention at 4 μg/mL (E. coli 190317 [10]): 0.5 µg/mL
